Source: patent US20030144346A1, “Methods and compositions for regulation of 5-alpha reductase activity” (priority 1997, published 2003)
Values belong to the molecule of their own block, whether it stands above or below them.

Experiments:
[1] = target: T1, type 1 human 5α-reductase (HRED1) (Homo sapiens, UniProt P18405); assay: Whole cell assay of 5α-reductase, type 1 isoenzyme; type: cell-based; parameters: expressed in transfected cells; host or cells: rat 1A cells infected with pMV7 retrovirus; conditions: whole cell assay; for inhibition at 100 µM / IC50 / HRED1 % Inhibition @ 100 μM: Table 7; for IC50: read-out: HCRED1 IC50;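 as to all read-outs here: intact rat 1A cells engineered to express the human type 1 5α-reductase isozyme serve as the enzyme source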
T1 sequence (P18405 1-259): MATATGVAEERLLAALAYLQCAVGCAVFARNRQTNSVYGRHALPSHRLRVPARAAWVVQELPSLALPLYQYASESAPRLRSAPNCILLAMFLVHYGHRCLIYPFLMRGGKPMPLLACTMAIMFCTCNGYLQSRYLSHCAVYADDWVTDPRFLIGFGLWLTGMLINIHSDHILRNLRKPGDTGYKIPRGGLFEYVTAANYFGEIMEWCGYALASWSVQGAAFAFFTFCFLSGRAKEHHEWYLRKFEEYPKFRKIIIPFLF

[2] = target: T2, type 2 human 5α-reductase (HRED2) (Homo sapiens, UniProt P31213); assay: Cell free assay of 5α-reductase, microsomes of rat 1A cells expressing type 2 isoenzyme (HRED2); type: biochemical; parameters: expressed in transfected cells; host or cells: rat 1A cells infected with pMV7 retrovirus; microsomes;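 also: labeled testosterone and its product dihydrotestosterone measured in microsomal reaction extracts via thin layer chromatography plus radioanalytic scanning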
T2 sequence (P31213 1-254): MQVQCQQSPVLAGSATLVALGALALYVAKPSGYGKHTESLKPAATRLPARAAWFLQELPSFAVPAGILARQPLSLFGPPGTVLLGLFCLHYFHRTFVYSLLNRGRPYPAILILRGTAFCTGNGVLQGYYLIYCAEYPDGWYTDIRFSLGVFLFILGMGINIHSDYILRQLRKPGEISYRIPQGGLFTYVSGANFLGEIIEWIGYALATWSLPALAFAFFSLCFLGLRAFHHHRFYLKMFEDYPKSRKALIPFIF

[3] = target: T1, type 1 human 5α-reductase (HRED1); assay: Cell free assay of 5α-reductase, microsomes of rat 1A cells expressing type 1 isoenzyme (HRED1); type: biochemical; parameters: expressed in transfected cells; host or cells: rat 1A cells infected with pMV7 retrovirus; microsomes;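 also: microsomes from rat 1A cells expressing human type 1 5α-reductase, conversion of radiolabeled testosterone to dihydrotestosterone quantified by thin layer chromatography with radioanalytic scanning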
[4] = target: T2, type 2 human 5α-reductase (HRED2); assay: Whole cell assay of 5α-reductase, type 2 isoenzyme; type: cell-based; parameters: expressed in transfected cells; host or cells: rat 1A cells infected with pMV7 retrovirus; conditions: for inhibition at 100 µM / HRED2 % Inhibition @ 100 μM: Table 7; for IC50: Table 7, read-out: HCRED2 IC50;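 as to all read-outs here: intact rat 1A cells genetically modified to carry human type 2 5α-reductase served as the enzyme source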
[5] = cell free assay, Table 4 quinones, read-out: HRED1 IC50
[6] = read-out: HRED1 % Inhibition @ 100 μM
[7] = cell free assay, Table 4 quinones, read-out: HRED2 IC50
[8] = read-out: HRED2 % Inhibition @ 100 uM
[9] = 100 μM, cell free assay, Table 5
[10] = cell-free assay, read-out: IC50, type 1 isoenzyme
[11] = cell free assay, Table 2 catechols, read-out: HRED2 IC50
[12] = cell free assay, Table 2 catechols, read-out: HRED1 IC50

Structure (SMILES): O=C1c2ccccc2C(=O)c2c1ccc(O)c2O [Alizarin]
inhibition at 100 µM [1]: 75% | inhibitory activity in the whole cell assay, type 1 isoenzyme, in words [1]: very effective inhibitor | IC50 [1]: 6 µM | inhibition at 100 µM ([2]; read-out: HRED2 % Inhibition @ 100 μM): 54% | IC50 [3, 5]: 3 µM | inhibitory activity against type 1 isoenzyme, in words ([3]; cell-free assay): very effective inhibitor | inhibition at 100 µM [3, 6]: 95% | inhibition at 100 µM [4]: 27% | IC50 [4]: > 100 µM

Structure (SMILES): O=C1c2ccccc2C(=O)c2c1cc(S(=O)(=O)[O-])c(O)c2O.[Na+] [Alizarin Red 5, Alizarin Red S]
HRED1 % Inhibition @ 100 μM [1]: 28% | IC50 [2, 7]: > 100 µM | IC50 [4]: > 100 µM

Structure (SMILES): CCCCC/C=C\C/C=C\C/C=C\CCCCC(=O)OC [Gamma-Linolenic Acid Me Ester]
HRED1 % Inhibition @ 100 μM [1]: 49% | IC50 [1]: > 100 µM | HRED2 % Inhibition @ 100 μM [4]: 26% | IC50 [4]: > 100 µM

Structure (SMILES): O=c1c(O)c(-c2ccc(O)c(O)c2)oc2cc(O)ccc12 [Fisetin]
inhibition at 100 µM [1]: 42% | IC50 [1]: > 100 µM | inhibition at 100 µM ([2]; 100 uM, cell free assay, Table 1, read-out: HRED2 % Inhibition @ 100 uM): 4% | IC50 ([2]; cell free assay, Table 1 flavanoids, read-out: HRED2 IC50): > 100 µM | inhibition at 100 µM ([3]; 100 uM, cell free assay, Table 1, read-out: HRED1 % Inhibition @ 100 uM): 97% | IC50 ([3]; cell free assay, Table 1 flavanoids, read-out: HRED1 IC50): 57 µM | IC50 [3, 10]: < 100 µM | inhibition at 100 µM [4]: 27% | IC50 [4]: > 100 µM

Structure (SMILES): CC(Cc1ccc(O)c(O)c1)C(C)Cc1ccc(O)c(O)c1 (centres unmarked) [Nordihydrogaiaretic Acid, Nordihydroguaiaretic acid]
inhibitory activity in the whole cell assay, type 1 isoenzyme, in words [1]: active | HRED2 % Inhibition @ 100 uM ([2]; 100 uM, cell free assay, Table 2): 80%

Structure (SMILES): CCCCC/C=C\C/C=C\C/C=C\CCCCC(=O)O [Gamma-Linolenic Acid, Gamma-Linolenic Acid C18:3 CIS 6.9,12]
inhibition at 100 µM [1]: 91% | IC50 [1]: 22 µM | inhibition at 100 µM ([2]; 100 μM, cell free assay, Table 6, read-out: HRED2 % Inhibition @ 100 μM): 89% | IC50 ([2]; cell free assay, Table 6 fatty acids, read-out: HRED2 IC50): 11 µM | IC50 ([2]; cell-free assay, read-out: IC50, type 2 isoenzyme): 3 µM | IC50 ([3]; cell free assay, Table 6 fatty acids, read-out: HRED1 IC50): 5 µM | IC50 [3, 10]: 3 µM | inhibition at 100 µM [3, 6]: 99% | inhibition at 100 µM [4]: 86% | IC50 [4]: 20 µM

Structure (SMILES): CCCCC/C=C\C/C=C\C/C=C\CCCCC(=O)O[C@H]1CC[C@@]2(C)C(=CC[C@H]3[C@@H]4CC[C@H]([C@H](C)CCCC(C)C)[C@@]4(C)CC[C@@H]32)C1 [Gamma-Linolenic Acid Chol Ester]
HRED1 % Inhibition @ 100 μM [1]: 12% | IC50 [1]: > 100 µM | HRED2 % Inhibition @ 100 μM [4]: 11% | IC50 [4]: > 100 µM

Structure (SMILES): O=C1c2ccc(O)cc2C(=O)c2ccc(O)cc21 [Anthraflavic Acid]
inhibition at 100 µM ([2]; 100 μM, cell free assay, Table 4, read-out: HRED2 % Inhibition @ 100 μM): 22% | IC50 [2, 7]: > 100 µM | inhibition at 100 µM ([3]; 100 μM, cell free assay, Table 4, read-out: HRED1 % Inhibition @ 100 μM): 27% | IC50 [3, 5]: > 100 µM

Structure (SMILES): C=CCc1ccc(O)c(OC)c1 [Eugenol]
inhibition at 100 µM [2, 8]: 50% | IC50 ([2]; read-out: IC50, type 2 isoenzyme): > 100 µM | IC50 ([3]; cell free assay, Table 3 curcumin and related compounds, read-out: HRED1 IC50): > 100 µM | IC50 [3, 10]: > 100 µM | inhibition at 100 µM ([3]; read-out: HRED1 % Inhibition @ 100 uM): 0%

Structure (SMILES): COc1cc2ccc(=O)oc2c(O)c1O [Fraxetin]
IC50 [2, 11]: > 100 µM | IC50 [3, 12]: > 100 µM

Continued, values first:

inhibition at 100 µM [1]: 99% | inhibitory activity against type 2 isoenzyme, in words ([2]; cell-free assay): very effective inhibitor | inhibition at 100 µM [2, 8]: 87% | inhibition at 100 µM ([3]; 100 uM, cell free assay, Table 3, read-out: HRED1 % Inhibition @ 100 uM): 95% | inhibitory activity against type 1 isoenzyme, in words ([3]; cell-free assay): very effective inhibitor
Structure (SMILES): COc1cc(/C=C/C(=O)CC(=O)/C=C/c2ccc(O)c(OC)c2)ccc1O [Curcumin]

HRED1 % Inhibition @ 100 μM [1]: 40% | IC50 [1]: > 100 µM | HRED2 % Inhibition @ 100 μM [2, 9]: 51% | IC50 ([2]; cell free assay, Table 5 epigallocatechin derivatives, read-out: HRED2 IC50): 99 µM | HRED1 % Inhibition @ 100 μM [3, 9]: 93% | IC50 ([3]; cell free assay, Table 5 epigallocatechin derivatives, read-out: HRED1 IC50): 29 µM | HRED2 % Inhibition @ 100 μM [4]: 34% | IC50 [4]: > 100 µM
Structure (SMILES): Cc1c(O)cc(C(=O)OC2Cc3c(O)cc(O)cc3OC2c2cc(O)c(O)c(O)c2)cc1O (centres unmarked) [HZIV 68]

HRED1 % Inhibition @ 100 μM [1]: 97% | IC50 [1]: 28 µM | HRED2 % Inhibition @ 100 μM [4]: 98% | IC50 [4]: 32 µM
Structure (SMILES): CCCCCCCCCCCCCC(=O)OC1Cc2c(O)cc(O)cc2OC1c1cc(O)c(O)c(O)c1 (centres unmarked) [HZIV 165]

inhibitory activity against type 2 isoenzyme, in words ([2]; cell-free assay): effective inhibitors | inhibitory activity in the whole cell assay, type 2 isoenzyme, in words [4]: significant inhibitory activity
Structure (SMILES): O=c1c(-c2ccc(O)cc2)coc2cc(O)cc(O)c12 [Genistein]

HRED1 % Inhibition @ 100 μM [1]: 24% | IC50 [1]: > 100 µM | HRED2 % Inhibition @ 100 μM [4]: 18% | IC50 [4]: > 100 µM
Structure (SMILES): CC/C=C\C/C=C\C/C=C\CCCCCCCC(=O)OC [Alpha-Linolenic Acid Me Ester]

IC50 [2, 11]: > 100 µM | IC50 [3, 12]: 30 µM
Structure (SMILES): O=c1c(O)cccc2cc(O)c(O)c(O)c12 [Purpurogallin]
